23 molecules from patent publication US8426447B2, “Spiro-tricyclic ring compounds as beta-secretase modulators and methods of use” (Amgen Inc., priority 2008, dated 2013) can be followed below.

In test [1] the target is T1, BACE1 (Homo sapiens, UniProt P56817). The experiment in a line: In Vitro BACE Cell-based Assay (HEK cell assay): Aβ40 in conditioned medium of cells stably expressing Amyloid Precursor Protein, sandwich ELISA. The gist of the method:
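First, APP-stable cells grow 24 h at 37° C., 5% CO2. Next, test compounds are added for 24 h (10 doses, 0.1% DMSO). Finally, medium Aβ40 is determined by pAb40/6E10 sandwich ELISA with Europium TRF, and IC50 is calculated.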

Test [2] concerns the target T1, BACE1. The experiment in a line: In Vitro Enzymatic BACE FRET (Fluorescence Resonance Energy Transfer) Assay. Type of test: biochemical. The gist of the method: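 Acetate buffer at pH 4.2 with 10% DMSO and 100 uM genapol hosts the enzymatic reaction, initiated by 50 nM FRET substrate and allowed to proceed one hour. Tris quench to neutral pH precedes the fluorescence measurement.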

Setting [3] is: HEK cells, read-out: HEK cell assay.
[4] abbreviates: Table IV, class symbols, read-out: HEK cell assay.
Where [5] appears, read: Table IV, class symbols, read-out: BACE1 FRET assay.
[6] abbreviates: HEK cell-based assay, Aβ40 in conditioned medium, IC50 class symbols, read-out: HEK cell assay.
Setting [7] is: in vitro BACE FRET enzyme assay, IC50 class symbols, read-out: BACE1 FRET assay.
The mark [8] stands for this setting: Table III, IC50's in uM ranges, read-out: HEK cell assay.
Setting [9] is: Table III, IC50's in uM ranges, read-out: BACE1 FRET assay.
Where [10] appears, read: Table 1, Aβ40, 24 h incubation, read-out: HEK cell assay.
Where [11] appears, read: Table 1, read-out: BACE1 FRET assay.

The structures appear in SMILES notation. A value given as a limit tells only on which side of the number the result lay.

T1 sequence (P56817 46-501, species assumed): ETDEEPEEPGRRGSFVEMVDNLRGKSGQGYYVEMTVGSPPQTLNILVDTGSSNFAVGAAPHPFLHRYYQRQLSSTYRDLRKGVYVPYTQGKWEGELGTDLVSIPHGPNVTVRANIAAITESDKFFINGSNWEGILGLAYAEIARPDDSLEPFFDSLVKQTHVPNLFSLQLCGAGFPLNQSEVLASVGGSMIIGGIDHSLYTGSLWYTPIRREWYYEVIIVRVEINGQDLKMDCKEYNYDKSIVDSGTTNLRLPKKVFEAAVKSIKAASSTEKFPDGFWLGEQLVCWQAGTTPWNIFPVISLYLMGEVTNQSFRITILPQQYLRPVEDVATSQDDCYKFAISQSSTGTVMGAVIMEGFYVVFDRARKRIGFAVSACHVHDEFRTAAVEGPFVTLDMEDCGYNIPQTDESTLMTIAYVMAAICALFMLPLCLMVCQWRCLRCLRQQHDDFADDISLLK

Consider `NC1=N[C@@]2(CO1)c1cc(-c3cccc(Cl)c3)ccc1Oc1cnc(C3=CCOCC3)cc12` [compound 427, (5S)-7-(3-chlorophenyl)-3-(3,6-dihydro-2H-pyran-4-yl)spiro[chromeno[2,3-c]pyridine-5,4′-[1,3]oxazol]-2′-amine], for which the IC50 at BACE1 [1] (setting [3]) and at BACE1 [2] (read-out: BACE1 FRET assay) was under 0.1 µM in each case.

As to `CC(C)(C)CCc1cnc2c(c1)[C@]1(COC(N)=N1)c1cc(-c3cccnc3)ccc1O2` [compound 922], the IC50 at BACE1 [1] (setting [4]) and on BACE1 [2] (setting [5]) was under 0.1 µM throughout.

As for `COc1ccc2c(c1)[C@]1(COC(N)=N1)c1cc(-c3cccc4cnccc34)ccc1O2` [compound 588], the IC50 at BACE1 [1] (setting [4]) fell in the range of 1 to 5 µM; at BACE1 [2] (setting [5]) it was 0.1 to 1 µM.

Regarding `NC1=N[C@]2(CO1)c1cc(Br)ccc1Oc1ccc(-c3cccnc3)cc12` [compound 960], the IC50 was 1 to 5 µM at BACE1 [1] (read-out: HEK cell assay) and 0.1 to 1 µM at BACE1 [2] (read-out: BACE1 FRET assay).

Turning to `CC(C)(C)COc1cnc2c(c1)[C@]1(COC(N)=N1)c1cc(-c3cccc(C#N)c3)ccc1O2` [compound 358], the IC50 on BACE1 [1] (setting [6]) and on BACE1 [2] (setting [7]) was under 0.1 µM in each case.

As to `Cc1cc(-c2ccc3c(c2)[C@]2(COC(N)=N2)c2cc(-c4cccnc4)ccc2O3)cc(=O)o1` [compound 390], the IC50 at BACE1 [1] (setting [6]) and at BACE1 [2] (setting [7]) was under 0.1 µM each time.

With `COc1ccc2c(c1)[C@]1(COC(N)=N1)c1cc(Br)cc(F)c1O2` [compound 377], the values for the IC50 at BACE1 [1] (setting [6]) and at BACE1 [2] (setting [7]) were 1 to 5 µM and over 5 µM, respectively.

Consider `CC(C)CCCOc1nccc2c1[C@]1(COC(N)=N1)c1cc(-c3cccnc3)ccc1O2` [compound 842], for which the IC50 at BACE1 [1] (setting [4]) and on BACE1 [2] (setting [5]) was 0.1 to 1 µM throughout.

In the case of `CC(=O)c1sccc1-c1ccc2c(c1)[C@@]1(COC(N)=N1)c1cc(OCC(C)(C)C)ccc1O2` [compound 835], the IC50 is over 5 µM at BACE1 [1] (setting [4]) and 1 to 5 µM on BACE1 [2] (setting [5]).

For the molecule `CC(C)(F)COc1ccc2c(c1)[C@]1(COC(N)=N1)c1cc(-c3cccnc3)ccc1O2` [compound 148], the IC50 at BACE1 [1] (setting [8]) and at BACE1 [2] (setting [9]) was under 0.1 µM in each case.

In the case of `CC1(C)C=C(c2cnc3c(c2)[C@]2(COC(N)=N2)c2cc(-c4cncnc4)ccc2O3)CCO1` [compound 478], the IC50 on BACE1 [1] (setting [3]) and on BACE1 [2] (read-out: BACE1 FRET assay) was under 0.1 µM throughout.

With `NC1=N[C@]2(CO1)c1ccccc1Oc1ccc(-c3cccnc3)cc12` [compound 684], the IC50 at BACE1 [1] (read-out: HEK cell assay) and on BACE1 [2] (read-out: BACE1 FRET assay) was 0.1 to 1 µM throughout.

Consider `COc1ccc2c(c1)C1(COC(N)=N1)c1cc(-c3cccc(Cl)c3F)ccc1O2` (stereo not shown) [Example 18, 2′-(3-chloro-2-fluorophenyl)-7′-methoxyspiro[1,3-oxazole-4,9′-xanthen]-2-amine], for which the IC50 on BACE1 [1] (setting [10]) is over 5 µM; at BACE1 [2] (setting [11]) it was 1 to 5 µM.

Take `COC(C)(C)C#Cc1ccc2c(c1)C1(COC(N)=N1)c1cc(C#CC(C)(C)OC)ccc1O2` [Example 119, 2′,7′-bis(3-methoxy-3-methylbut-1-ynyl)-5H-spiro[oxazole-4,9′-xanthen]-2-amine]: the IC50 on BACE1 [1] (setting [8]) and on BACE1 [2] (setting [9]) was 0.1 to 1 µM each time.

Regarding `CC(C)(C)C#Cc1ccc2c(c1)[C@@]1(COC(N)=N1)c1cc(-c3cccnc3)cnc1O2` [compound 895], the IC50 at BACE1 [1] (setting [4]) and on BACE1 [2] (setting [5]) was under 0.1 µM each time.

With `COc1cc2c(cc1F)Oc1ccc(-c3cncnc3)cc1[C@]21COC(N)=N1` [154a], the IC50 at BACE1 [1] (setting [8]) and at BACE1 [2] (setting [9]) was over 5 µM in each case.

For `CCC1(CC)CN(c2ccc3c(c2)[C@]2(COC(N)=N2)c2cc(-c4cncnc4)ccc2O3)CCO1` [compound 467], the IC50 at BACE1 [1] (setting [3]) was 0.1 to 1 µM; at BACE1 [2] (read-out: BACE1 FRET assay), under 0.1 µM.

For the molecule `CC(C)(O)C#Cc1cnc2c(c1)[C@@]1(COC(N)=N1)c1cc(C#CC3CC3)ccc1O2` [compound 705], the IC50 at BACE1 [1] (read-out: HEK cell assay) and at BACE1 [2] (read-out: BACE1 FRET assay) was over 5 µM each time.

In the case of `CON(C)C(=O)COc1ccc2c(c1)[C@]1(COC(N)=N1)c1cc(-c3cccnc3)ccc1O2` [compound 788], the IC50 at BACE1 [1] (read-out: HEK cell assay) and at BACE1 [2] (read-out: BACE1 FRET assay) was 1 to 5 µM throughout.

For `CC1(C)C=C(c2cc3c(cn2)Oc2ccc(-c4cccnc4F)cc2[C@@]32COC(N)=N2)CCO1` [compound 435], the IC50 against BACE1 [1] (HEK cell assay (uM), HEK cells) was under 0.1 µM; at BACE1 [2] (BACE1 FRET assay (uM)), under 0.1 µM.

In the case of `NC1=N[C@@]2(CO1)c1cc(-c3cccnc3)ccc1Oc1cnc(N3CCC4(CC3)OCCO4)cc12` [compound 443], the IC50 at BACE1 [1] (setting [3]) and at BACE1 [2] (read-out: BACE1 FRET assay) was under 0.1 µM each time.

Turning to `COc1ccc2c(c1)[C@@]1(COC(N)=N1)c1cc(-c3cncnc3)cc(F)c1O2` [152b], the IC50 at BACE1 [1] (setting [8]) and at BACE1 [2] (setting [9]) was 1 to 5 µM throughout.

Consider `COc1ccc2c(c1)C1(COC(N)=N1)c1cc(-c3cccnc3F)ccc1O2` (stereo not shown) [Example 16, 2′-(2-fluoro-3-pyridinyl)-7′-methoxyspiro[1,3-oxazole-4,9′-xanthen]-2-amine], for which the IC50 on BACE1 [1] (setting [10]) and at BACE1 [2] (setting [11]) was 1 to 5 µM throughout.
